Earlier results, collected in US20180104231A1, “BENZALKONIUM CHLORIDE FREE OPHTHALMIC COMPOSITION CONTAINING (+)-(S)-4-[4-CHLOROPHENYL) (2-PYRIDYL) METHOXY] PIPERDINO] BUTYRIC ACID OR PHARMACOLOGICALLY ACCEPTABLE ACID ADDITION SALT, THEREOF” (INTERA HEALTHCARE PLC, priority 2016, published 2018).

Columns and labels:
[1] = with the lapse of time
[2] = system: corneal epithelium and endothelium

| Stability to light in an aqueous solution [1] | Compound | Effect of BAC exposure on cornea ([2]; BAC 0.0001%, minimum of 15 min exposure) | Effect of BAC on corneal epithelial cells ([2]; clinical concentration (0.005%)) |
| --- | --- | --- | --- |
| unstable to light | O=C(O)CCCN1CCC(O[C@@H](c2ccc(Cl)cc2)c2ccccn2)CC1.O=S(=O)(O)c1ccccc1 [bepotastine besilate] | – | – |
| – | benzalkonium chloride [BAC] | physiological changes (edema) and ultra-structural changes to corneal epithelium and endothelium | cell wrinkling to lifting of corneal epithelial cells |
